Tests used:
[1] = test system: N-methyl-D-aspartate (NMDA) seizures; test: N-methyl-D-aspartate (NMDA) seizures: tonic convulsions in mice; assay type: in vivo, male TO mice; conditions: Mus musculus, drug 15 min before NMDA 300 mg/kg i.p., weights refer to the free base, read-out: NMDA seizures ED50 (dose required to decrease the incidence of tonic convulsions by 50%)
Protocol: (§1) Animals used were male Wistar rats (140-170 g) and male TO mice (18-30 g).
(§2) All drugs were dissolved in isotonic saline. Weights refer to the free base.
Drugs were adminstered 15 min before the NMDA, and data are expressed as the dose required to decrease the incidence of tonic convulsions by 50% (ED50).

locomotor activity = test: Sedation studies: suppression of locomotor activity in mice; assay type: in vivo, male TO mice; conditions: Mus musculus, recording starts 20 min after administration, 30 min period, weights refer to the free base, read-out: Sedation ED50 (dose required to reduce locomotor activity by 50%)
Protocol: as §1, §2
The test drug was administered to mice and starting 20 min later locomotor activity was recorded for a 30 min period. Activity was monitored using an infra-red light beam interruption system in cages measuring 40 cm×40 cm. Data are expressed as the dose required to reduce locomotor activity by 50% (ED50).

[2] = test system: Pentylenetetrazol (PTZ) seizures; test: Pentylenetetrazol (PTZ) seizures: seizure threshold in rats; assay type: in vivo, male Wistar rats; conditions: Rattus norvegicus, 0.25 h, drug 15 min before PTZ infusion into tail vein, weights refer to the free base, read-out: PTZ seizures TI50 (dose required to increase seizure threshold by 50%)
Protocol: as §1, §2
Seizure threshold was assessed in rats by measurement of the dose of PTZ required to elicit a seizure when infused through a tail vein. PTZ (10 mg/ml) was infused into the tail vein at a rate of […] and the time to the first clonic convulsion measured. Seizure threshold was calculated as described by Green & Murray, J. Pharm. Pharmacol. 1989, 41: 879-880. Drugs were administered 15 min before the PTZ. Data are expressed as the dose required to increase seizure threshold by 50% (TI50).

[3] = test system: CA1/CA2 hippocampal neurones; test: Neuroprotection studies: damage to CA1/CA2 hippocampal neurones in gerbils after carotid artery occlusion; assay type: in vivo, gerbil
Protocol: as §2
Ischaemia was induced in gerbils, by occlusion of the carotid arteries following the accepted general procedure as described in, for example, EP 230 370 and R. Gill, A. C. Foster and G. N. Woodruff, J. Neuroscience, 1987, 7, 3343-3349.
Ischaemia was induced in the animals by 5 minute occlusion of both carotid arteries. Body temperature was maintained at 37° C. throughout. Restoration of blood flow after occlusion was checked visually and the animals were allowed to survive for 4 days. The extent of neuronal degeneration in the hippocampus was then assessed. The test compounds were adminstered (i.p.) as a single dose 60 minutes following occlusion. No administration was made prior to the occlusion.

| Compound | ED50 [1] [mg/kg] | ED50 (locomotor activity) [mg/kg] | ED50 [2] [mg/kg] | % Damage to CA1/CA2 Hippocampal Neurones ([3]; 100 mg/kg i.p. single dose 60 minutes after induction of ischaemia, n=8, assessed after 4 days, untreated (None) 92 ±7) [%] | reduction of damage to the CA1/CA2 hippocampal neurones (in words) ([3]; i.p., single dose 60 minutes following occlusion) |
| --- | --- | --- | --- | --- | --- |
| Cc1ncsc1C(O)CCl (centres unmarked) [5-(2-Chloro-1-hydroxyethyl)-4-methylthiazole ethandisulphonate] | 40 | 52 | 34 | – | – |
| Cc1ncsc1C(O)CCl.Cl (centres unmarked) [5-(2-chloro-1-hydroxyethyl)-4-methylthiazole hydrochloride salt] | – | – | – | 64 ±8 | effective in reducing the damage to the CA1/CA2 hippocampal neurones |

Source: patent US5385921A, “Pharmaceutical formulations” (Aktiebolaget Astra, priority 1990, dated 1995)
